Measurements taken from ChEMBL document CHEMBL1137510, “Discovery of potent T-type calcium channel blocker” (Bioorg Med Chem Lett, 2007).

What was measured:
Assay type in all cases: cell-based
[1] = molecular target: Voltage-dependent T-type calcium channel subunit alpha-1G (Homo sapiens) (UniProt O43497); experiment: Inhibition of T-type calcium channel Cav3.1 alpha-1G subunit expressed in HEK293 cells assessed as calcium current at 10 uM by patch-clamp assay
[2] = molecular target: Voltage-dependent T-type calcium channel subunit alpha-1G (Homo sapiens) (UniProt O43497); experiment: Inhibition of T-type calcium channel Cav3.1 alpha-1G subunit expressed in HEK293 cells assessed as calcium current at 10 uM by high throughput screening
[3] = molecular target: Voltage-dependent N-type calcium channel subunit alpha-1B (Homo sapiens) (UniProt Q00975); experiment: Inhibition of N-type calcium channel […] alpha-1B subunit expressed in HEK293 cells assessed as calcium current at 10 uM by patch-clamp assay
Sequence of Voltage-dependent N-type calcium channel subunit alpha-1B (Homo sapiens) (Q00975 whole entry, looked up): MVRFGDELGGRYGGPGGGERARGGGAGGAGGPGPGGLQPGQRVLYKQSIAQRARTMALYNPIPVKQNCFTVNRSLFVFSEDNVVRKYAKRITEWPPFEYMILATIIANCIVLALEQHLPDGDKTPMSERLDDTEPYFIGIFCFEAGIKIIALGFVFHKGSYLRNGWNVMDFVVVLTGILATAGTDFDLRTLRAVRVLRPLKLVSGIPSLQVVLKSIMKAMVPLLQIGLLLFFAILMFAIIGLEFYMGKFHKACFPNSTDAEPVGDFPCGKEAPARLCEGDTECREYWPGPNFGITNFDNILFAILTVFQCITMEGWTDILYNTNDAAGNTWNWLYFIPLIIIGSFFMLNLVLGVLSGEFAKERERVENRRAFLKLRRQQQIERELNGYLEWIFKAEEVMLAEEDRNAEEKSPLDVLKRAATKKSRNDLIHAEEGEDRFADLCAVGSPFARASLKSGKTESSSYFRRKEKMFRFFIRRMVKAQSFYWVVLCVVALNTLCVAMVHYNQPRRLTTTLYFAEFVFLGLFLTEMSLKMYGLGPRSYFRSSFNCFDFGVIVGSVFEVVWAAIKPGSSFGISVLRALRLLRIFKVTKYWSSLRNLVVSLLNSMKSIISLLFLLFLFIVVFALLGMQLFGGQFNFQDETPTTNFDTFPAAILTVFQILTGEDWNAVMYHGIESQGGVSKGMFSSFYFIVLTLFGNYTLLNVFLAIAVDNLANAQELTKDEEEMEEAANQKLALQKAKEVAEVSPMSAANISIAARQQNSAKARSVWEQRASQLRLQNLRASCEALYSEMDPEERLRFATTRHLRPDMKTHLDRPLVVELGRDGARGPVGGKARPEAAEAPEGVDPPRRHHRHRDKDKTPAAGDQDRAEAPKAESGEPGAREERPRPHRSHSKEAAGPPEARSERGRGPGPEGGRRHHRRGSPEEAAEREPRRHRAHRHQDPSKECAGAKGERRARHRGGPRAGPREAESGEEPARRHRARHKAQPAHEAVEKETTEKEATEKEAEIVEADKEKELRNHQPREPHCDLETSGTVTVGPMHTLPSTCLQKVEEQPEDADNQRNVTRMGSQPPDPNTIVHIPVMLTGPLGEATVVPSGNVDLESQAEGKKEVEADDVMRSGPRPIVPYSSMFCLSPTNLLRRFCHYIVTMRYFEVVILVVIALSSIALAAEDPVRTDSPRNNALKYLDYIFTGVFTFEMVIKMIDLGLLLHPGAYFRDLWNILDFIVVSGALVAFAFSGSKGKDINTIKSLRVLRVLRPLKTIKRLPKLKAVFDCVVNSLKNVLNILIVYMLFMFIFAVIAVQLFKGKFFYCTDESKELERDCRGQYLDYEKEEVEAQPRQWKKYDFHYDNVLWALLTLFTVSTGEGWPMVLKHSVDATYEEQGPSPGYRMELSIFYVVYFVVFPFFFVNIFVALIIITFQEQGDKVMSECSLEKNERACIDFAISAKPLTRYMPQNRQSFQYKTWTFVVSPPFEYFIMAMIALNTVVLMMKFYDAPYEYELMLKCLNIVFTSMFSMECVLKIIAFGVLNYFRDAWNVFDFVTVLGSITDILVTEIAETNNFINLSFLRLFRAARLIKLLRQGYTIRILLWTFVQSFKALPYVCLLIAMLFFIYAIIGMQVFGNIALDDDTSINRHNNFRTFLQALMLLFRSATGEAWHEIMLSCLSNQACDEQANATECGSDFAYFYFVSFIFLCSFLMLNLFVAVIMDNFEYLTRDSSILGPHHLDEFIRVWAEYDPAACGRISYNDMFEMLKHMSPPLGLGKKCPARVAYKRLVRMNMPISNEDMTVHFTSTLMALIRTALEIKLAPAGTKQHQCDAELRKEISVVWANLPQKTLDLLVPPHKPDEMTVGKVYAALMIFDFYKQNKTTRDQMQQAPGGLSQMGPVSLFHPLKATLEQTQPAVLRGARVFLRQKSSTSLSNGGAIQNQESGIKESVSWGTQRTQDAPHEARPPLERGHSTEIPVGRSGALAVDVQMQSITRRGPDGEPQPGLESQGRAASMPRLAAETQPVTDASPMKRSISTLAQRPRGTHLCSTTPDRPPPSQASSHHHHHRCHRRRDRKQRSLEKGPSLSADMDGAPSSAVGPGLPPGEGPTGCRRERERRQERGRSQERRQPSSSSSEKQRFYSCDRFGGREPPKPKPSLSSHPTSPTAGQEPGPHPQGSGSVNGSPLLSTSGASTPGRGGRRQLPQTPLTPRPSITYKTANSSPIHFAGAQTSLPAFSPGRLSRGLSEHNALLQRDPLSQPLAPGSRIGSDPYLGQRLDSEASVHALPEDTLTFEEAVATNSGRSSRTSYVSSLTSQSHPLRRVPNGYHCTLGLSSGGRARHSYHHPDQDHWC

HEK293 [4] = experiment: Selectivity for Alpha-1B N-type calcium channel over alpha-1G T-type calcium channel expressed in HEK293 cells at 10 uM; details: Homo sapiens
HEK293 [5] = experiment: Selectivity for alpha-1B N-type calcium channel over alpha1G T-type calcium channel expressed in HEK293 cells; details: Homo sapiens

Sequence of Voltage-dependent T-type calcium channel subunit alpha-1G (Homo sapiens) (O43497 whole entry): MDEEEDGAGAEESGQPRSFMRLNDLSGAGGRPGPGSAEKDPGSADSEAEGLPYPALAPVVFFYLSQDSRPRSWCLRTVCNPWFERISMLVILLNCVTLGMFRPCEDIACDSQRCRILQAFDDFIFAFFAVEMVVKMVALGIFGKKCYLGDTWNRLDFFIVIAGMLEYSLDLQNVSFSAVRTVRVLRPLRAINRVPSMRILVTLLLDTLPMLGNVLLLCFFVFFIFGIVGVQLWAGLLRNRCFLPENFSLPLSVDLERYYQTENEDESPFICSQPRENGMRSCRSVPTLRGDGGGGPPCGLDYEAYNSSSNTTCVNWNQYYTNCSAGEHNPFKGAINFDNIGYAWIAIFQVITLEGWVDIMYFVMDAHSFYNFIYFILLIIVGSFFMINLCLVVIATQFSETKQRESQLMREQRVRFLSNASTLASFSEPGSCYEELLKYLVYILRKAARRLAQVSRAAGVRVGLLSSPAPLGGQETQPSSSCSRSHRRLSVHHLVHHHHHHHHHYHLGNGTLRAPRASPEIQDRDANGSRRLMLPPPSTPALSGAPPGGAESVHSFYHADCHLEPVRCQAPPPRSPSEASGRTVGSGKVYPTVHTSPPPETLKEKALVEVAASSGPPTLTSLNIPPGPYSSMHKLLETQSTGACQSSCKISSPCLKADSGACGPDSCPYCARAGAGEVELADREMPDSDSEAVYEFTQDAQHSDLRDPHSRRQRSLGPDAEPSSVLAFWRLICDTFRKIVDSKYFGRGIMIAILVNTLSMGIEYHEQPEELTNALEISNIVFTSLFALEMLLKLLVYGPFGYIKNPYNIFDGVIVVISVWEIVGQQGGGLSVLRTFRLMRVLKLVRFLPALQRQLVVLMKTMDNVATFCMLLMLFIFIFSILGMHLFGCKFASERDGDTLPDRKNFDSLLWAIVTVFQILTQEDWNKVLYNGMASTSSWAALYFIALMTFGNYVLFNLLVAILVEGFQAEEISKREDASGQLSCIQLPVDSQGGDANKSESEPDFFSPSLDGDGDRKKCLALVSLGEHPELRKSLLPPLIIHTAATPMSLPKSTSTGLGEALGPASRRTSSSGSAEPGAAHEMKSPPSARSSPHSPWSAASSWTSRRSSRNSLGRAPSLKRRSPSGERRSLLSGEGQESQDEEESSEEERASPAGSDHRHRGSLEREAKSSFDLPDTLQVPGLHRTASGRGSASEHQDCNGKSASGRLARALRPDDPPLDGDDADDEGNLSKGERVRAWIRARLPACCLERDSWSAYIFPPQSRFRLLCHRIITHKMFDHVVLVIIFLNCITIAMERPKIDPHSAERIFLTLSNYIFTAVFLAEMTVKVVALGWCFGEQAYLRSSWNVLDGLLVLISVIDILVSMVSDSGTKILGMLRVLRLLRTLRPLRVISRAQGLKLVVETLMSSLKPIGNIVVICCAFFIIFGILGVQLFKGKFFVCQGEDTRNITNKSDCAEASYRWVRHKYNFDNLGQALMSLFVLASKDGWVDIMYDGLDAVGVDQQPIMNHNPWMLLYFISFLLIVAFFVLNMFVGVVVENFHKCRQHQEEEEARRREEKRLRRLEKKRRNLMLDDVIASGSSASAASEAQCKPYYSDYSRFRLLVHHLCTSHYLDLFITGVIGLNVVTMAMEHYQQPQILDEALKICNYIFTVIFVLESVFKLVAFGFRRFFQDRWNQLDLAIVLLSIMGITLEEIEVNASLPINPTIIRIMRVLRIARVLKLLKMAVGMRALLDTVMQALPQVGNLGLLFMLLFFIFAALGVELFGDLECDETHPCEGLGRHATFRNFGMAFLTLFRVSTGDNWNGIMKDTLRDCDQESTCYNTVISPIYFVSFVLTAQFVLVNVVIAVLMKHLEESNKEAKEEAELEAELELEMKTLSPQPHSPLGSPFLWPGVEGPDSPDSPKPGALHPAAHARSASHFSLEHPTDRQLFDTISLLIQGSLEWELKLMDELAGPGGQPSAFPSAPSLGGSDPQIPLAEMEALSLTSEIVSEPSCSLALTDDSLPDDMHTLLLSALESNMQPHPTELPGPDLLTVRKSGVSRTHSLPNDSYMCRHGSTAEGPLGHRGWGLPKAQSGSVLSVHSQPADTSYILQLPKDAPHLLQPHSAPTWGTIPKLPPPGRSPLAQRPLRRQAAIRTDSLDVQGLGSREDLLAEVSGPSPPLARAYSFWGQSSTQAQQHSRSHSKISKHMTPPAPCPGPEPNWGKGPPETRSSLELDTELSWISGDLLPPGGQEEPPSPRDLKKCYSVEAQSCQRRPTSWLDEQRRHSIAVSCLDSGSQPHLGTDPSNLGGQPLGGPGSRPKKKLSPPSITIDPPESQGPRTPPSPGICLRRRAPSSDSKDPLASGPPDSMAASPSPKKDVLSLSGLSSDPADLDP

COC(=O)CC1c2ccccc2N=C(N(C)CCCCCN(C)C)N1c1ccc(-c2ccccc2)cc1 (stereo not drawn)
inhibition [1]: 90.1%
inhibition [2]: 57.9%
inhibition [3]: 24.4%
Selectivity ratio (HEK293 [4]): 3.7

CN(C)CCCCCN(C)C1=Nc2ccccc2C(CC(=O)NCc2ccccc2)N1c1ccc(-c2ccccc2)cc1 (stereo not drawn)
inhibition [1]: 98%
inhibition [2]: 42.9%
inhibition [3]: 70.6%
Selectivity ratio (HEK293 [4]): 1.4
Ratio IC50 (HEK293 [5]): 120

COCC(=O)O[C@]1(CCN(C)CCCc2nc3ccccc3[nH]2)CCc2cc(F)ccc2[C@@H]1C(C)C
inhibition [2]: 77.6%

COC(=O)CC1c2ccccc2N=C(NCCCCCN)N1c1ccc(-c2ccccc2)cc1 (stereo not drawn)
Selectivity ratio (HEK293 [4]): > 100

O=C(CC1c2ccccc2N=C(N2CCCCC2)N1c1ccccc1)NCc1ccccc1 (stereo not drawn)
inhibition [3]: 28.1%
Selectivity ratio (HEK293 [4]): 3.2
